From patent US9226919B2, “Methods for dosing an orally active 1,2,4-oxadiazole” (PTC Therapeutics, Inc., priority 2006, dated 2016)

How the values were obtained:
Type in all cases: in vivo, human
serum CK = test: Serum CK levels, Phase 2 DMD study; conditions: majority of subjects at 4-, 8-, 10-, 20-, 40-mg/kg dose levels (p=0.03, 0.002, 0.001)
Method: Serum CK activity is assessed using a commercially available NADH-linked kinetic assay (Diagnostic Chemicals Ltd., Oxford, Conn.). Serum CK levels are measured prior to treatment, on day 1 (prior to first dose), day 7, day 14, day 21, and day 27 during the treatment period, and on day 42 and day 56 after treatment. Serum CK is increased in Duchenne muscular dystrophy and therefore is a readily measurable diagnostic marker for the disease and may serve as a potential biomarker for the pharmacological activity of the drug (Mendell et al., 1989, New Eng. J. Med. 320(24):1592-1597).
Pre-treatment of primary muscle cells from 24 of the 26 boys in the first 2 cohorts were available for in vitro myotube culture. […] These changes were statistically significant (p=0.03, p=0.002, p=0.001 for low-, middle- and high doses, respectively). The return of mean values toward baseline upon cessation of treatment provided additional support for pharmacological activity.

[1] = system: patients with nonsense-mutation-mediated cystic fibrosis; test: Investigator-asked changes in cystic fibrosis symptoms, Phase 2 studies
Text: In addition, although changes in patient's symptoms were not formally measured through the use of a quality-of-life questionnaire, trial investigators were requested to ask about changes in patients' cystic fibrosis symptoms. In the 15 patients included in the interim analysis, 6 reported general improvements in well being, 6 reported decrease in cough and 10 reported decreased mucus thickness and easier clearing of mucus.
The device was used to obtain the data set forth in FIG. 2 and will be used to offer substantial supplementary data regarding the clinical benefits of 3-[5-(2-fluoro-phenyl)-[1,2,4]oxadiazol-3-yl]-benzoic acid during Phase 3 testing in CF. Existing informally collected symptom data from the Phase 2 studies of 3-[5-(2-fluoro-phenyl)-[1,2,4]oxadiazol-3-yl]-benzoic acid support this concept. […] Without being limited by theory, based on the hypothesis that 3-[5-(2-fluoro-phenyl)-[1,2,4]oxadiazol-3-yl]-benzoic acid-mediated induction of CFTR function would reduce airway obstruction and inflammation, a decrease in cough frequency could serve as a symptomatic integration of these pharmacological effects and might offer a more accurate and quantitative assessment than verbal patient reporting.

CFTR = test: Transepithelial potential difference (TEPD) chloride conductance, Phase 2 cystic fibrosis study; conditions: 15 CF patients
Method: The measurement of transepithelial potential difference (TEPD), also known as nasal potential difference, provides a sensitive evaluation of sodium and chloride transport directly in secretory epithelial cells via assessment of transepithelial bioelectric properties (Knowles et al., 1981, N. Engl. J. Med. 305(25):1489-95; Knowles et al., 1995, Hum. Gene Ther. 6:445). TEPD is performed in each nostril using standardized techniques (Standaert et al., 2004, Ped. Pulm. 37:385-92). In the procedure, a small plastic catheter is used to assess electrical differences across the outer cell membrane of nasal mucosa cells in the nostril. TEPD values are expressed in millivolts, or mV. A chloride conductance equal to or more electrically negative than −5.0 mV is generally considered to be in the normal range. […] TEPD assessments can also be made on rectal epithelial cells and lower respiratory epithelial cells. Because of the role of the CFTR protein in transporting chloride ions across cell membranes, and because of the absence of this protein, cystic fibrosis patients have an abnormal TEPD chloride conductance. As an endpoint, TEPD has the advantage that it can detect chloride transport changes that are a quantitative integration of the presence, functional activity, and apical location of the CFTR in airway cells. Furthermore, it is a direct measure of CFTR activity that is not likely to be affected by supportive or palliative treatments for CF (with the possible exception of systemically administered aminoglycoside antibiotics). Of importance is evidence that TEPD values can correlate with the degree of pulmonary dysfunction and radiographic abnormality (Ho et al., 1997, Eur. Respir. J. 10(9):2018-22; Fajac et al., 1998, Eur. Respir. J 12(6):1295-300; Sermet-Gaudelus et al., 2005, Am. J. Respit. Crit. Care Med. 171(9):1026-1031). […] Under baseline conditions, TEPD-assessed chloride channel activity is very unlikely to normalize spontaneously in patients with CF; any observed improvements in TEPD-assessed chloride channel activity are expected to specifically denote pharmacological activity of CFTR-correcting therapies. […]
Clinical endpoints were evaluated using the procedures set forth above. […] Pulmonary tests, including FEV1, FVC and MEF25-75, were measured prior to treatment, on day −1 of Cycle 2, on day 13 or 14 of Cycle 1 and day 13 or 14 of Cycle 2 in the study being conducted in Israel and the same parameters were measured prior to treatment and on day 13 or 14 of Cycle 2 in the study being conducted in the United States. […]

[2] = of 15 CF patients in interim analysis
[3] = higher dose level (10, 10, 20 mg/kg TID, 14 days)
[4] = lower dose level (4, 4, 8 mg/kg TID, 14 days)

## O=C(O)c1cccc(-c2noc(-c3ccccc3F)n2)c1 [3-[5-(2-fluoro-phenyl)-[1,2,4]oxadiazol-3-yl]-benzoic acid]
Serum CK
  Serum CK, end-of-treatment versus pretreatment values: decreases in CK
[1]; [2]
  Patients reporting decrease in cough: 6
  Patients reporting decreased mucus thickness and easier clearing of mucus: 10
  Patients reporting general improvements in well being: 6
[1]; several patients, informally collected symptom data, Phase 2 studies
  Patient-described on-study coughing: decreases in coughing
CFTR; [3]
  Mean change in TEPD chloride conductance, best of nostrils: −6.4 mV
  Mean change in TEPD chloride conductance, mean of both nostrils: −4.4 mV
CFTR; [4]
  Mean change in TEPD chloride conductance, best of nostrils: −9.0 mV
  Mean change in TEPD chloride conductance, mean of both nostrils: −6.7 mV
